Reference: patent US5591758A, “Organic nitrates, processes for their preparation and their use in the treatment of cardiovascular diseases” (Laboratoires Hoechst, SA, priority 1991, dated 1997)
Where a name gives a salt, the structure may show the parent alone.

Assays:
[1] = test system: isolated pulmonary vessel; experiment: Relaxant activity on blood vessels isolated from guinea pigs (pulmonary artery); conditions: Cavia porcellus; guinea pig pulmonary artery, K+ depolarised, Ca2+ contraction; read-out: IC50 (relaxation of 50%)
Procedure: Determination of the relaxant activity of the compounds according to the invention on blood vessels isolated from guinea pigs.
The pulmonary artery of male guinea pigs (350-500 g) is isolated and cut into spiral tracts (1 mm wide, 15 mm long). […] After having removed the calcium from the tissues (Tyrode without calcium and 0.2 mM EDTA), the tracts are depolarised in the presence of a concentrated solution of K^+ ions (40 mM), which is produced by replacing the NaCl by equimolar amounts of KCl, and a contraction of long duration is then induced by Ca^2+ ions (0.5 mM).
The compounds studied are then introduced into the organ cell in increasing concentrations.
Each compound is tested on at least four vessel spiral tracts.

[2] = test system: anesthetised pigs; experiment: Haemodynamic effects on anesthetised pigs; assay type: in vivo, pigs ("German land" race)
Procedure: Haemodynamic effects of the compounds according to the invention on anesthetised pigs or dogs
Pigs are of "German land" race (20-26 kg) and are used after fasting overnight.
In the case of pigs, sedation, analgesia and anesthesia are induced by ketamine HCl (20 mg/kg i.m.), methonidate HCl (10 mg/kg i.m.), xylacine HCl (3 mg/kg i.m.) and sodium pentobarbitol (25-30 mg/kg as bolus i.v. or 0.16 mg/kg/min as i.v. perfusion).
The pigs or dogs are placed under artificial respiration in ambient air. Analysis of the blood gases (pO2, pCO2) is carried out at regular intervals and oxygen can be supplied via the respirator, if necessary.
The haemodynamic parameters recorded include the left ventricular pressure (LVP; Millar PC350 Tip catheter inserted via the carotid artery), systemic blood pressure (BPs, BPd; full catheter in a femoral artery), the end pressure of the left ventricular diastole (LVEDP), the ventricular contractility (LVPdp/dtmax) and the heart rate (HR).
The haemodynamic variables are recorded continuously for 1 to 3 hours, as a function of the period of action of the compound.
The effects of the compounds studied are shown as the absolute difference with respect to the base value (bv) measured before administration of the compounds and are shown in Table VII (a,b,c).
An antianginal activity is estimated by a fall in the BPs and the LVEDP (fall in venous return).

[3] = test system: thoracic aorta; experiment: Vasorelaxant effect on isolated vessels (rat thoracic aorta rings without endothelium, precontracted with noradrenalin); design: species or system Wistar rats
Outline: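 Endothelium-denuded thoracic aorta rings from Wistar rats, held in Krebs-Ringer buffer (pH 7.4, 37 °C, 95% O2/5% CO2) under isometric tension and precontracted with 10^-7 M noradrenalin, received cumulative compound (10^-8 to 10^-4 M). Maximum relaxation given as percent; IC50 calculated when relaxation exceeded 50%.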

Row | IC50 ([3]; rat aorta, 10^-7 M noradrenalin contraction) | SMILES | IC50 [1] | BPs (min), period of action ([2]; pigs, 3,0 mg/kg i.d.) | BPs, difference to base value ([2]; pigs, 3,0 mg/kg i.d.) | LVRDP (min), period of action ([2]; pigs, 3,0 mg/kg i.d.) | LVRDP, difference to base value ([2]; pigs, 3,0 mg/kg i.d.) | Emax ([3]; Rattus norvegicus, maximum inhibition of noradrenalin effect, 10^-8 to 10^-4 M substance, read-out: Maximum Relaxation) | BPs, difference to base value ([2]; pigs, 1,0 mg/kg i.d.) | LVRDP, difference to base value ([2]; pigs, 1,0 mg/kg i.d.) | BPs (min), period of action ([2]; pigs, 10,0 mg/kg i.d.) | BPs, difference to base value ([2]; pigs, 10,0 mg/kg i.d.) | LVRDP (min), period of action ([2]; pigs, 10,0 mg/kg i.d.) | LVRDP, difference to base value ([2]; pigs, 10,0 mg/kg i.d.)
1 | 100 µM | O=C(CNC(=O)[C@@H]1CSCN1)N[C@H]1CO[C@H]2[C@@H]1OC[C@@H]2O[N+](=O)[O-] [Compound 46, 5-[[2-[[(4-L-Thiazolidinyl)carbonyl]amino]-1oxoethyl]amino]-5-deoxy-2-O-nitro-1,4:3,6-dianhydro-L-iditol monohydrochloride] | 38 µM | > 120 min | -30 mmHg | > 120 min | -5,0 mmHg | 50% | – | – | – | – | – | –
2 | – | O=[N+]([O-])O[C@@H]1CO[C@H]2[C@@H]1OC[C@@H]2O [IS-5-MN, isosorbide 5-mononitrate, reference compound] | > 100 µM | 60 min | -5 mmHg | 60 min | -3 mmHg | – | 0 mmHg | 0 mmHg | > 120 min | -26 mmHg | > 120 min | -3,0 mmHg
